≈ marks a conversion by molar mass, not a printed value.
Experiment: Solubility of celecoxib in aqueous media
Format: physicochemical
Protocol: However, celecoxib presents certain challenges for formulation as a rapid-onset dosage form, particularly as a rapid-onset oral dosage form. For example, celecoxib has very low solubility in aqueous media (about 2 to about 5 μg/ml) and therefore is not readily dissolved and dispersed for rapid absorption in the gastrointestinal tract when administered orally, for example in tablet or capsule form. In addition, celecoxib has a relatively high dose requirement further increasing difficulties of providing a sufficient therapeutically effective dose for rapid absorption.

## Cc1ccc(-c2cc(C(F)(F)F)nn2-c2ccc(S(N)(=O)=O)cc2)cc1 [celecoxib, 4-[5-(4-methylphenyl)-3-(trifluoromethyl)-1H-pyrazol-1-yl]benzenesulfonamide]
  solubility: 2 to 5 µg/mL (≈ 5.24 to 13.1 µM)
